The values that follow come from ChEMBL document CHEMBL1149964, “The structure of MK-571 (form I) at 170 K and conformational analysis by molecular modeling” (Bioorg Med Chem Lett, 1992).

SMILES strings stand for the structures.

The target of assay [1] is T1, Cysteinyl leukotriene receptor 1 (Homo sapiens) (UniProt Q9Y271).
T1 sequence (whole entry): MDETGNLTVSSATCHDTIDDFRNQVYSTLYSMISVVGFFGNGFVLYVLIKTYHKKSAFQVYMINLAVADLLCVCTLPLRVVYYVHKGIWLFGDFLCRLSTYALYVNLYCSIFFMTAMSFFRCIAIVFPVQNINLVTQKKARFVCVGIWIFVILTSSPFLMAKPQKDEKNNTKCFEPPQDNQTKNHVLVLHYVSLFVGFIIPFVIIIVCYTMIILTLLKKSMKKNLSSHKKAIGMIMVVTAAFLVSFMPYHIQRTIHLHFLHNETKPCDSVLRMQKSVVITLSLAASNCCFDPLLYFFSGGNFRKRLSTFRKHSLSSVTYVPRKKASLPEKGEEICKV
Kind of assay: In vivo antagonistic activity against leukotriene D4 receptor; A - Active. Type of assay: functional, organism-based. Particulars: filed as antagonist.

Assay [2] addresses T1, Cysteinyl leukotriene receptor 1 (Homo sapiens). Kind of assay: In vitro antagonistic activity against leukotriene D4 receptor; A - Active. Type of assay: functional. Particulars: filed as antagonist.

Regarding `CN(C)C(=O)CCSC(SCCC(=O)O)c1cccc(/C=C/c2ccc3ccc(Cl)cc3n2)c1` (centres undefined), the Activity entry in assay [1] and in assay [2] was “Antagonist” in each case.
Take `CN(C)C(=O)CCS[C@H](SCCC(=O)O)c1cccc(/C=C/c2ccc3ccc(Cl)cc3n2)c1`: the Activity result in assay [1] and in assay [2] was “Antagonist” in each case.
